Entries after “also recorded” stand apart in the source; their conditions may differ. Each block holds one molecule with its values, some of them ahead of it.
What was measured:
[1] = test system: patients with advanced solid tumors; assay: exposure, dosing compliance and actions taken with study drug; format: in vivo, human
CSF-1R = settings: read-out: IC50 CSF-1R; ref Investigator's Brochure, 14; cited from earlier work
CD14dim/CD16+ monocytes = assay: blood CD14dim/CD16+ monocyte levels; format: in vivo, human; settings: doses as low as 800 mg daily
osteoclast precursors = settings: RANK-L and CSF-1 dependent manner; ref Investigator's Brochure, 14; cited from earlier work
PVNS/TGCT = settings: 1000 mg daily; cited from earlier work
[2] = test system: patients with advanced solid tumors; assay: phase Ib dose escalation 3+3: DLT, MTD, RP2D; format: in vivo, human
mammary carcinoma = settings: mouse model of mammary carcinoma, cited from earlier work
[3] = pexidartinib plasma pharmacokinetics, cycle 1 day 15; format: in vivo, human; settings: day 15, steady state

patients with paclitaxel dose reductions ([1]; Eight patients): 15% | patients with paclitaxel temporarily withheld ([1]; in vivo): 39%
SMILES: CC(=O)O[C@H]1C(=O)[C@@]2(C)[C@H]([C@H](OC(=O)c3ccccc3)[C@]3(O)C[C@H](OC(=O)[C@H](O)[C@@H](NC(=O)c4ccccc4)c4ccccc4)C(C)=C1C3(C)C)[C@]1(OC(C)=O)CO[C@@H]1C[C@@H]2O [paclitaxel, reference compound]
omitted paclitaxel doses with AEs as reason ([1]; in vivo): 54%

SMILES: FC(F)(F)c1ccc(CNc2ccc(Cc3c[nH]c4ncc(Cl)cc34)cn2)cn1 [pexidartinib]
IC50 (CSF-1R): […] | reduction of CD14dim/CD16+ monocytes in the peripheral blood (CD14dim/CD16+ monocytes): near complete reduction | differentiation of osteoclast precursors (osteoclast precursors): inhibit differentiation | Median PFS (PVNS/TGCT): not reached | time in which PRs occurred (PVNS/TGCT): […] | recommended phase II dose (RP2D) ([2]; pexidartinib in combination with weekly paclitaxel 80 mg/m^2): […] | maximum tolerated dose ([2]; pexidartinib up to 1600 mg/day with weekly paclitaxel): no maximum tolerated dose was achieved; also recorded: No maximum tolerated dose was determined; also recorded: No maximum tolerated dose was reached | survival of study animals (mammary carcinoma; following chemotherapy): improved survival | tumor growth (mammary carcinoma; following chemotherapy): slower tumor growth | TAM recruitment following chemotherapy (mammary carcinoma): abrogate TAM recruitment | dose reductions as an immediate action following pexidartinib-related AE ([1]; in vivo): […] | patients missing doses of pexidartinib due to AEs of any cause ([1]; in vivo): […] | patients with dose modifications of pexidartinib ([1]; in vivo): […] | patients with pexidartinib dose reductions ([1]; in vivo): […] | dose at which pexidartinib plasma concentration and exposure reached saturation [3]: […]

— PMC6589951 (Therapeutic Advances in Medical Oncology, 2019)
